Results: patent US7888355B2, “Compositions and methods for inhibiting growth and metastasis of melanoma” (Burnham Institute for Medical Research, priority 2007, dated 2011)

What was measured:
caspase 8 = experiment: Caspase 8 immunoblot in SW1 cells; type: cell-based, mouse; conditions: 0.5 μM AIGA, 0.5 or 1.0 μM CSL, 24 hours
Protocol: (§1) Mitochondrial activity and apoptosis. Cells were exposed to the chemicals for 12-48 hours as indicated in Results. To measure changes in mitochondrial activity reflective of general cell viability, the ATPLITE ATP detection assay was used according to the manufacturer's recommendations (Perkin Elmer). Apoptosis analysis was performed by flow cytometry of PI-stained cells. The percentage of cells to the left of the diploid G0/1 peak, characteristic of hypodiploid cells that have partially lost DNA, was calculated as percentage of apoptotic cells (Bhoumik et al., PNAS 101:4222-7, 2004). Analysis of changes in Caspase 8 expression pattern was performed using immunoblot analysis.
Immunoblot analysis. Proteins prepared from cells at the indicated time points using RIPA buffer and 75 μg were separated on SDS-PAGE followed by immunoblot analysis using the antibodies indicated. […]
The finding that CSL and AIGA reduced cell viability in melanoma was made using the ATPLITE assay, which monitors the degree of mitochondrial ATP release, a marker for mitochondrial activity. […] Immunoblot analysis using caspase 8 antibody monitored full length and cleaved forms (active) of caspase 8. β-actin was used as a loading control.

[1] = Tolerability of administration to mice; type: in vivo, mouse; conditions: daily administration, doses up to 1 mg/kg
Protocol: (§2) To assess the ability of CSL and CSL derivatives to affect the tumorigenicity and metastasis of melanoma, the mouse SW1 cell lines were used in syngeneic models. Injection of SW1 melanoma cells subcutaneously into C3H mice was followed by daily injections of CSL intraperitoneally (IP). […] Briefly, SW1 cells that stably express GFP were injected s.c into C3H mice. When the tumor reached the size of 50 mm^3, the vehicle, CSL (1 mg/kg), CA16 (0.5 mg/kg) or CA19 (0.5 mg/kg) were administered i.p, every second day for a period of 24 days. Tumor size was measured at the indicated times. Data presented in FIG. 6b represents two experiments.

SW1 tumors = experiment: SW1 tumor growth in syngeneic C3H mice; type: in vivo, mouse; conditions: 1 mg/kg i.p. every second day for 24 days
Protocol: (§3) Tumor growth and metastasis in vivo. GFP-expressing SW1 cells were trypsinized, resuspended in PBS, and injected subcutaneously (1×10^6) into the lower flank of 6 to 7-week-old mice. When tumors reached a size of about 50 mm^3, the indicated compounds (100 μL of the vehicle—10% DMSO, 70% Cremophor/ethanol (3:1), and 20% PBS and 1.0 mg/kg of celastrol or 0.5 mg/kg of the derivatives CA16, CA19) were injected i.p. every alternate day. Body weight and tumor growth were monitored every 2 days. GFP-expressing SW1 tumors were monitored in vivo on shaved mice with a light box illuminated by blue light fiber optics (Lightools Research; Encinitas, Calif.), and imaging was carried out with a digital camera (Nikon D100). Tumors were measured for up to 3 weeks. For metastases studies, LU1205 cells (1×10^6) were injected i.v. into the lateral tail vein of nude mice. At the end of the experiment, the lungs and tumors were excised and weighed. To detect metastatic lesions, lungs were fixed in formalin, embedded in paraffin and subjected to hematoxylin and eosin staining.
as §2

[2] = system: Human melanoma LU1205 cells; experiment: LU1205 lung metastasis in nude mice; type: in vivo, mouse; conditions: compound every second day, analysis 60 days after injection
Protocol: as §3
The effect of CSL and CSL derivatives, CA16 and CA19, on the metastatic capacity of melanoma cells was then determined. Human melanoma LU1205 cells were injected into the tail vein of nude mice, followed by administration of the compounds every second day. This approach allows monitoring of changes in the number of lesions formed on the lungs, a primary organ for tumor cell growth under this experimental approach. Analysis performed 60 days following injection determined changes in the number and size of metastatic lesions in each of the experimental groups.

SW1 mouse melanoma = experiment: SW1 metastatic lesions in syngeneic C3H mice; type: in vivo; conditions: SW1 cells s.c. in C3H mice
Protocol: as §3
To further assess the impact of these compounds on the development of metastatic lesions, the SW1 mouse melanoma model using the syngeneic C3H strain was employed. Subcutaneous injection of SW1 cells results in tumor formation at the site of injection followed by metastasis to different sites within 6-8 weeks.

Mdm2 and p53 = experiment: Stability of short-lived proteins; type: cell-based; conditions: 0.3-1 μM, data not shown
Description: CSL was also shown to inhibit NF-κB activation through the inhibition of IKB kinase and TAK1 activities. […] Thus, it is likely that the ability of CSL to attenuate NF-κB activity would result in increased JNK activity, which is consistent the findings herein. It is the increase in JNK activity, and consequently of its substrate c-Jun, in concert with inhibition of ATF2 activities that brings about the potent cytotoxic effects of both CSL and AIGA on melanoma cells, similar to what was previously shown for the ATF2 peptides.

WM115 cells = experiment: WM115 melanoma cell viability; type: cell-based, human; conditions: WM115 cells
Protocol: (§4) Cell lines. Mouse melanoma (SW1) and human melanoma (LU1205) cells were maintained in DMEM supplemented with 10% FBS, L-glutamine and antibiotics. The human melanoma cell lines MEWO and WM115 were maintained in RPMI supplemented with 10% FBS and antibiotics. Primary mouse melanocytes were cultured in F-12 media supplemented with 10% FBS, antibiotics, IBMX (isobuthyl-methylxantine), bovine pituitary extract, and TPA.
as §1
The effects of CSL and AIGA on the human melanoma cell lines WM115 and MEWO were assessed. AIGA reduced the viability of the human melanoma cultures when added at a concentration of 0.5-2 μM (FIG. 5a and FIG. 5c) whereas CSL reduced their viability at a concentration of 0.1 μM-2 μM in WM115 cells (FIG. 5b) and 0.05 μM-2 μM in MeWO cells (FIG. 5d).

MeWO cells = experiment: MeWO melanoma cell viability; type: cell-based, human
Protocol: as §4, §1
The effects of CSL and AIGA on the human melanoma cell lines WM115 and MEWO were assessed. […]

| Compound | cleaved (active) forms of caspase 8 (caspase 8) | toxicity or discomfort in mice [1] | reduction of tumor growth (SW1 tumors) [fold] | growth of large, medium and small sized lesions in the lungs [2] | metastatic lesions (SW1 mouse melanoma) | stability of short-lived proteins, including Mdm2 and p53 (Mdm2 and p53) | concentration at which viability was reduced (WM115 cells) [µM] | concentration at which viability was reduced (MeWO cells) [µM] |
| --- | --- | --- | --- | --- | --- | --- | --- | --- |
| CC1=C(O)C(=O)C=C2C1=CC=C1[C@@]2(C)CC[C@@]2(C)[C@@H]3C[C@](C)(C(=O)O)CC[C@]3(C)CC[C@]12C [Celastrol] | increase in intensity of the cleaved forms caspase 8 | did not result in toxicity or any noticeable discomfort | 5 | efficient in inhibiting growth of large medium and small sized lesions in the lungs | potently exhibit the ability to inhibit large as well as small metastatic lesions, with the exception of the 1-2 mm range | did not affect |  |  |
| CC(=O)Oc1c2c(c(CC=C(C)C)c3c1C(=O)C1=C[C@@H]4CC5C(C)(C)OC(C/C=C(\C)C(=O)O)(C4=O)[C@@]15O3)OC(C)(CCC=C(C)C)C=C2 (stereo partly drawn) [AIGA, Acetyl isogambogic acid] | increase in intensity of the cleaved forms caspase 8 |  |  |  |  |  | 0.5 to 2 | 0.5 to 2 |
